Data published in BindingDB's records for doi:10.1016/j.ejmech.2017.08.046 (University of Torino, 2017).

Molecular target: Prostaglandin G/H synthase 2 (Homo sapiens) (UniProt P35354)
Assay: Inhibition of human COX2 assessed as reduction in PGF2alpha production by ELISA

Sequence of Prostaglandin G/H synthase 2 (Homo sapiens) (P35354 whole entry, looked up): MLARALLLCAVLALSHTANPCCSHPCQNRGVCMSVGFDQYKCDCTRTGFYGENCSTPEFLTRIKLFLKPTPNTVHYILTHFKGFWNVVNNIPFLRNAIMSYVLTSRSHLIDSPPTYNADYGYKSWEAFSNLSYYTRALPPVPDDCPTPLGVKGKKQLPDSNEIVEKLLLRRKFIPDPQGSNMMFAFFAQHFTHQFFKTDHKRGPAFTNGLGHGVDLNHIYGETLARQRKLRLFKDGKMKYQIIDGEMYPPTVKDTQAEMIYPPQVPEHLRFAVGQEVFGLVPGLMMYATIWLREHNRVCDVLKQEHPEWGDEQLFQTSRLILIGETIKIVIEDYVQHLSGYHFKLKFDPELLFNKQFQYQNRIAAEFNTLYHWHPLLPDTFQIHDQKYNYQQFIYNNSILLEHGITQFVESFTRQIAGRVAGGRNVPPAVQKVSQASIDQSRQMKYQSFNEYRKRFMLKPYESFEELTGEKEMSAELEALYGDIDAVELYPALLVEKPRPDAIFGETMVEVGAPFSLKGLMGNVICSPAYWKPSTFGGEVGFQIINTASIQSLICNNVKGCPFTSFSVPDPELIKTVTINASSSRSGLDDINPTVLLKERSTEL

| Structure (SMILES) | IC50 |
| --- | --- |
| O=C(Nc1cccc(C(F)(F)F)c1)c1c(O)nnn1CC1CC1 | > 100 µM |
| COc1ccc(Cn2nnc(O)c2C(=O)Nc2cccc(C(F)(F)F)c2)cc1 | > 100 µM |
| O=C(Nc1cccc(C(F)(F)F)c1)c1c(O)nnn1Cc1ccccc1 | > 100 µM |
